Assay results: patent US10717788B2, “Cyclodextrin functionalized nanoparticles for quenching bacterial communications” (University of South Carolina, priority 2014, dated 2020)

Tests used:
[1] = tested on: Vibrio fischeri; assay: Growth studies: luminescence of Vibrio fischeri in vitro; format: cell-based
[2] = tested on: Vibrio fischeri; assay: Quantification of gene expression during luminescence; format: cell-based
[3] = NMR diffusion experiments, binding affinity of cyclodextrin for N-octanoyl-homoserine lactone; conditions: based on dissociation constants calculated from the diffusion data
Description: To confirm that cyclodextrin was the active quenching agent in the model system, NMR diffusion experiments were performed.

Compound: OC[C@H]1O[C@@H]2O[C@H]3[C@H](O)[C@@H](O)[C@@H](O[C@H]4[C@H](O)[C@@H](O)[C@@H](O[C@H]5[C@H](O)[C@@H](O)[C@@H](O[C@H]6[C@H](O)[C@@H](O)[C@@H](O[C@H]7[C@H](O)[C@@H](O)[C@@H](O[C@H]8[C@H](O)[C@@H](O)[C@@H](O[C@H]1[C@H](O)[C@H]2O)O[C@@H]8CO)O[C@@H]7CO)O[C@@H]6CO)O[C@@H]5CO)O[C@@H]4CO)O[C@@H]3CO [cyclodextrin, β-Cyclodextrin]
- luminescence [1]: reduce luminescence
- production of autoinducers and luciferase (gene expression) [2]: decrease in the production of autoinducers and luciferase
- binding of N-octanoyl-homoserine lactone (complex formation) [3]: able to bind cyclodextrin and form a complex
